Assay results: ChEMBL document CHEMBL1125472, “5-lipoxygenase: properties, pharmacology, and the quinolinyl(bridged)aryl class of inhibitors” (J Med Chem, 1992)
pIC50, pKi: −log10 of the molar value.

Columns and labels:
[1] = molecular target: T1, Polyunsaturated fatty acid 5-lipoxygenase (Rattus norvegicus, UniProt P12527); test: The compound was tested for inhibitory activity against 5-Lipoxygenase in rat RBL-1; assay type: cell-based
T1 sequence (P12527 whole entry): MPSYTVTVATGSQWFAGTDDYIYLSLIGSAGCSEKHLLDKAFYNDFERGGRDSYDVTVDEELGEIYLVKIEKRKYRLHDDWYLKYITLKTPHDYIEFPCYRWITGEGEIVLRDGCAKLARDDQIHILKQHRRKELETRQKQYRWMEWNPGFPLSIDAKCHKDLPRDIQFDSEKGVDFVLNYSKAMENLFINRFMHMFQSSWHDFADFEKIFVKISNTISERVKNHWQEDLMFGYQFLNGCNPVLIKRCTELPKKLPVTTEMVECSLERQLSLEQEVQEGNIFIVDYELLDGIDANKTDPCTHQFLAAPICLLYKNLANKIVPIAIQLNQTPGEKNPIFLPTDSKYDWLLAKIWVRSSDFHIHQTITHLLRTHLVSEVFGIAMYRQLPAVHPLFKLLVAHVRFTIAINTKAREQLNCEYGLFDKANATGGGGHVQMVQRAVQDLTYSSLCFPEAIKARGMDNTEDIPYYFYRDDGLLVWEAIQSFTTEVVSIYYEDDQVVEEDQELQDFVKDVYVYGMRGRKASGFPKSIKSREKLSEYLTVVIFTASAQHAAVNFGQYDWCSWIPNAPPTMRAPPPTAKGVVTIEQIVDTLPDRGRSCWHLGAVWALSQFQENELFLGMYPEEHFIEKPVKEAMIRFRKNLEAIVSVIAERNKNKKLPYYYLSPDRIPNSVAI

[2] = molecular target: T1, Polyunsaturated fatty acid 5-lipoxygenase; test: The compound was tested for inhibitory activity against 5-lipoxygenase in rat polymorphonuclear leukocytes[PMNS]; assay type: cell-based
Cavia porcellus [3] = organism: Cavia porcellus; test: The compound was tested for inhibitory activity against LTD4-induced contractions of guinea pig ileum; assay type: functional
Cyclooxygenase [4] = molecular target: T2, Cyclooxygenase (Rattus norvegicus, UniProt P35355+Q63921); test: The compound was tested for inhibitory activity against Prostaglandin G/H synthase in rat polymorphonuclear leukocytes[PMNS]; assay type: cell-based
T2 sequence (P35355 whole entry): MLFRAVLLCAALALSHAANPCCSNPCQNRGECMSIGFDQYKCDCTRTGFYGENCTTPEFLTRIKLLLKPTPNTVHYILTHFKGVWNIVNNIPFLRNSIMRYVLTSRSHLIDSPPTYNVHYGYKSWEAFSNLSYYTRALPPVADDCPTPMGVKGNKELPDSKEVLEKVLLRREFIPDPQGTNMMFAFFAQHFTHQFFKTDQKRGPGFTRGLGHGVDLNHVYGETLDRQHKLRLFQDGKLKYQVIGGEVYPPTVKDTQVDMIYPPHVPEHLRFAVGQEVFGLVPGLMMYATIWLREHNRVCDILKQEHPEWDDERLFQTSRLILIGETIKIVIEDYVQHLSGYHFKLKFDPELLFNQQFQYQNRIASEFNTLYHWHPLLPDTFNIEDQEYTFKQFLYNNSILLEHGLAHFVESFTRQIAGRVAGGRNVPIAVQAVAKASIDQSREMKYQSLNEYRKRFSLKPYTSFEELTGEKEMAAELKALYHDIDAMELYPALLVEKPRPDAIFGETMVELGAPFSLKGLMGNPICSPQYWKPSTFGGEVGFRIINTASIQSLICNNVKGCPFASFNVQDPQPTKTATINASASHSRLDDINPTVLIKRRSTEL
T2 sequence (Q63921 whole entry): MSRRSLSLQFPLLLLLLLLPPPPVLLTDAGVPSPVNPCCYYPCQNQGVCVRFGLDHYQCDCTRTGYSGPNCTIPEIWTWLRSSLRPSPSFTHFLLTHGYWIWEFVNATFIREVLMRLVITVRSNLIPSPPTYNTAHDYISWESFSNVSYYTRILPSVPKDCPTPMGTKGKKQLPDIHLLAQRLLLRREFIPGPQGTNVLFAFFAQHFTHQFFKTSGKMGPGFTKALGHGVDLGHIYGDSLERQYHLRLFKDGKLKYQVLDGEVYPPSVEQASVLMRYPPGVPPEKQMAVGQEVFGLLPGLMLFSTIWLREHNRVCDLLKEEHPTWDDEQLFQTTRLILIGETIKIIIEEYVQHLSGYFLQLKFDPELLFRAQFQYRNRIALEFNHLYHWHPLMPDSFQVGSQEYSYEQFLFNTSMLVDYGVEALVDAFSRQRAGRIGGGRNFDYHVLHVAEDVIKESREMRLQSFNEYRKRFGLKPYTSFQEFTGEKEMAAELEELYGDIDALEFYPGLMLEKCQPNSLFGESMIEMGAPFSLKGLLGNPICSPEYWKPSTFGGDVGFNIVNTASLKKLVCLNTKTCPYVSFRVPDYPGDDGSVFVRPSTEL

[5] = molecular target: T3, Polyunsaturated fatty acid 5-lipoxygenase (Homo sapiens, UniProt P09917)
T3 sequence (P09917 whole entry): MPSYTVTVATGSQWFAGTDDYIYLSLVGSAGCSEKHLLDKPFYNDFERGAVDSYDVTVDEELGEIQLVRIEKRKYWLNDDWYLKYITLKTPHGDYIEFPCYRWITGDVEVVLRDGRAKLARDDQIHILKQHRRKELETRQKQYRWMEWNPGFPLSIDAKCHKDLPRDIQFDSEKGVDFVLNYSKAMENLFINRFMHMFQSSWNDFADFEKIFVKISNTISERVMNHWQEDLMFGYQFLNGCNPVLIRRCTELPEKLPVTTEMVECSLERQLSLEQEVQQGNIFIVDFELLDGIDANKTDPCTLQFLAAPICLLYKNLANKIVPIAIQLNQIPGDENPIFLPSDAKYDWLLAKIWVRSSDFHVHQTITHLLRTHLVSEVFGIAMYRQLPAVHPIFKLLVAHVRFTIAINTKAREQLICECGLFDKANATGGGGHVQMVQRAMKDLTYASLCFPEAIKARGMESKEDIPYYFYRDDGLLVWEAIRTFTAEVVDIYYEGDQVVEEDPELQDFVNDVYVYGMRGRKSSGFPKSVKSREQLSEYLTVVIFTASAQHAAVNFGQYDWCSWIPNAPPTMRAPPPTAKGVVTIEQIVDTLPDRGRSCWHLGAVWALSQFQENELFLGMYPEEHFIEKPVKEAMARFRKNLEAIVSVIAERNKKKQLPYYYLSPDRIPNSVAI

[6] = molecular target: T4, Polyunsaturated fatty acid 5-lipoxygenase (Rattus norvegicus) (UniProt P12527); test: The compound was tested for inhibition of isolated 5-Lipoxygenase
T4 sequence (whole entry): T1 sequence (P12527 whole entry)

RBL-2H3 [7] = test: The compound was tested for inhibition LTC4 synthesis; assay type: functional, Rattus norvegicus
RBL-2H3 [8] = test: The compound was tested for inhibition of translocation in SAR in RBL-2H3 cells; assay type: functional, Rattus norvegicus
[9] = molecular target: T4, Polyunsaturated fatty acid 5-lipoxygenase (Rattus norvegicus); test: The compound was tested for inhibition against 5-lipoxygenase in rat polymorphonuclear leukocytes[PMNS] at 10 uM concentration; assay type: cell-based
[10] = molecular target: Cyclooxygenase (Rattus norvegicus) (UniProt P35355+Q63921); test: The compound was tested for inhibition against Prostaglandin G/H synthase in rat polymorphonuclear leukocytes[PMNS] at 10 uM concentration; assay type: cell-based
[11] = molecular target: T3, Polyunsaturated fatty acid 5-lipoxygenase; test: The compound was tested for inhibitory activity against LT synthesis in human polymorphonuclear leukocytes[PMNS]; assay type: cell-based
[12] = molecular target: T1, Polyunsaturated fatty acid 5-lipoxygenase; test: The compound was tested for inhibitory activity against 5-lipoxygenase translocation inhibitor in rat RBL-2H3 cells; assay type: functional, cell-based
[13] = molecular target: T4, Polyunsaturated fatty acid 5-lipoxygenase (Rattus norvegicus); test: The compound was tested for inhibition of 5-lipoxygenase translocation in SAR in rat RBL-2H3 cells; assay type: functional, cell-based
Homo sapiens [14] = organism: Homo sapiens; test: The compound was tested for inhibitory activity against 5-Lipoxygenase in human polymorphonuclear leukocytes[PMNS]; assay type: functional
[15] = molecular target: T5, Leukotriene C4 synthase (Rattus norvegicus) (UniProt Q925U2); test: The compound was tested for inhibition LTC4 synthase from whole cells in rat
T5 sequence (whole entry): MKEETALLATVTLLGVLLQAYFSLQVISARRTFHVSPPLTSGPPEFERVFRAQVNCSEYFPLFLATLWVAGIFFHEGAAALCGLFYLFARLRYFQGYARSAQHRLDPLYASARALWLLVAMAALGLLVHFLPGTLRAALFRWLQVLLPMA

[16] = molecular target: T4, Polyunsaturated fatty acid 5-lipoxygenase (Rattus norvegicus); test: The compound was tested for inhibition of isolated 5-lipoxygenase
Homo sapiens [17] = organism: Homo sapiens; test: The compound was tested for inhibitory activity against Leukotriene synthesis in human monocytes; assay type: functional
Cavia porcellus [18] = organism: Cavia porcellus; test: The compound was tested for binding affinity against guinea pig lung membrane using [3H]LTD4 as radioligand
Cavia porcellus [19] = test: The compound was tested for inhibition of LTD4 response in guinea pig bronchoconstriction assay after intraduodenal administration (30 mg/kg)
Cyclooxygenase [20] = molecular target: Cyclooxygenase (Homo sapiens, UniProt P35354+P23219); test: The compound was tested for inhibitory activity against Prostaglandin G/H synthase in human polymorphonuclear leukocytes[PMNS]; assay type: cell-based
Cavia porcellus [21] = organism: Cavia porcellus; test: The effective dose for inhibition of LTD4-induced contractions of guinea pig trachea; assay type: functional

COc1c(OC)c(OC(C)=O)c2cc(Cl)ccc2c1OC(C)=O [LONAPALENE]
pIC50 [1]: 6.30

CC(c1ccoc1)N(O)C(N)=O (centres undefined)
pIC50 [1]: 4.96

O=C(O)c1ccccc1Nc1cccc(OCc2ccc3ccccc3n2)c1 [SR-2640]
pIC50 [2]: 5.00 | pIC50 (Cavia porcellus [3]): 8.52 | IC50 (Cyclooxygenase [4]): 2 µM

CSc1ccccc1/C=C/C(=O)N(C)O
pIC50 [5]: 7.00

CCCc1c(OCC(O)COc2cccc(NC(=O)C(=O)OCC)c2C#N)ccc(C(C)=O)c1O (centres undefined)
pIC50 [2]: 4.49

COc1ccc2cc([C@H](C)C(=O)O)ccc2c1 [NAPROXEN]
Inhibition [6]: > 20 µM | Inhibition (RBL-2H3 [7]): >10 µM | Inhibition (RBL-2H3 [8]): >10 µM

CCc1cc(OCc2ccc3ccccc3n2)cc2c3c([nH]c12)C(CC)(CC(=O)O)OCC3 (centres undefined)
Inhibition [9]: 91% | Inhibition [10]: 47%

O=C(CCCCCCCCc1ccccc1)NO
pIC50 [5]: 5.22

CC(C)c1ccc2c(c1)c(SC(C)(C)C)c(CC(C)(C)C(=O)O)n2Cc1ccc(Cl)cc1
pIC50 [11]: 7.22 | pIC50 [12]: 8.30 | Inhibition [13]: 35 nM | pIC50 (Homo sapiens [14]): 8.60 | Inhibition [15]: 3 nM | Inhibition [16]: > 20 µM | pIC50 (Homo sapiens [17]): 7.30

CCCCCC(O)c1cccc(OCc2ccc3ccccc3n2)c1 (centres undefined) [REV-5901]
pKi (Cavia porcellus [18]): 6.15 | Inhibition (Cavia porcellus [19]): 74%

CC(C)(C)c1cc(-c2cn3ncc(=O)nc3s2)cc(C(C)(C)C)c1O
IC50 (Cyclooxygenase [20]): 25 µM

CONC(=O)Cc1cccc(OCc2ccc3ccccc3n2)c1
ED50 (Cavia porcellus [21]): 7.9 mg/kg
